Results published in US20120070451A1, “METHODS AND COMPOSITIONS FOR MODULATING CARDIAC CONTRACTILITY” (Consiglio Nazionale Delle Ricerche, priority 2009, published 2012).

Experiments:
[1] = tested on: Cavα1; assay: Western blot of Cavα1 protein level in 293T cells co-transfected with Cavα1 and Cavβ2 variants; type: cell-based
Protocol: FIG. 5. Akt phosphorylation of Cavβ2 protects Cavα1 from protein degradation. (A-C) YFP-Cavα1 co-transfected 293T cells with the indicated mutant variant of Cavβ2. Cells were serum-starved overnight and treated with (A) […] or (B-C) 5 μM Akt inhibitor as indicated. The expression of YFP-Cavα1 in lysates was monitored by Western blot analysis with anti-YFP antibody, and normalized based on transfection efficiency (Cav(32) and protein amount (Tubulin) (n=3). (D) Cavα1 and Cavβ2 co-transfected 293T cells were treated with siAkt expressing vector as indicated. 3 days post transfection, cell lysate was tested by Western blot analysis. Protein loading was normalized to GAPDH levels. Representative experiments are shown (n=3).
FIG. 12. Cavβ2 interacts with Akt isoforms and Akt affects Cavα1 protein stability. (A) Immunoprecipitated Akt isoforms from WT cardiac extracts from mice treated or not with insulin (1 mU/g) assayed for Cavβ2. Input protein in each co-immunoprecipitation is shown. (B) Cavα1, Cavα1-ΔP, or Cavα1-ΔH co-transfected 293T cells with either Cavβ2 or Cavβ2-SE were infected with indicated active (AdAkt) or dominant negative (AdAktDN) Akt expressing adenoviral vectors. Cells were serum-starved overnight as indicated. The expression of Cavα1 and phosphorylation of GSK in lysates was monitored by Western blot analysis. (C) Cavα1, Cavα1-ΔP, or Cavα1 co-transfected 293T cells with either Cavβ2 or Cavβ2-SE were treated with siAkt expressing vector as indicated. 3 days post transfection, cells were lysated for protein extraction. Protein loading was normalized to GAPDH levels. Representative experiments are shown (n=3).
To directly assess whether Akt phosphorylation of Cavβ2 protects Cavα1 from protein degradation, we constructed a mutant of Cavβ2 in which the Serine 625, contained in the putative Akt—consensus site (R—X—X—R—S/T), was replaced by Glutamate (Cavβ2-SE) to mimic phosphorylation. […]
Proteins expression was evaluated in total lysates or cell fractions by Western blot analysis according to standard procedures. […]

[2] = tested on: Cavα1 currents; assay: Whole-cell patch clamp Ca2+ current (ICa,L) in cotransfected tsA-201 cells with or without serum; type: cell-based; details: cotransfection with Cavα1; 36 h
Protocol: FIG. 6. Akt phosphorylation of Cavβ2 preserves Cavα1 currents. Ca^2+ currents recorded in cotransfected tsA-201 cells with YFP-Cavα1 and either Cavβ2-WT, Cavβ2-SE, or Cavβ2-SA mutant, cultivated for 36 h in the presence or absence of fetal bovine serum (10%). Currents were recorded 1-2 minutes after the whole-cell configuration was achieved (i.e. after stabilization of the current) and were elicited by a 0 mV depolarization of 200 ms duration applied from a holding potential of −80 mV. Currents are normalized to cell capacitance (Current density, pA/pF). Representative current traces are shown. n>35 at each condition, (*P<0.05 compared to YFP-Cavα1, ANOVA).
FIG. 7. […] (C) Wild-type Cavα1 subunit (alone or cotransfected with Cavβ2SE) and its in-frame ΔPEST mutants (Cavα1-ΔP and Cavα1-ΔH) half-lives were determined in COST cells. After overnight starvation, transfected cells were pulse-chased and analyzed along a time course (*P<0.001 compared to Cavα1, ANOVA; n=3). […] (F) Ca^2+ currents recorded in tsA-201 cells cotransfected with Cavβ2-WT and either Cavα1-WT or Cavα1-ΔH and cultivated for 36 h in the presence or absence of fetal bovine serum (10%). […]
Macroscopic Ice, was recorded at room temperature (˜22° C.) using the whole-cell patch clamp technique in native cells as previously described (Aimond et al., 2005; Maier et al., 2003). […]

[3] = tested on: Cavβ2; assay: Cavβ2 phosphorylation in hearts of insulin-treated mice (PAS antibody); type: in vivo, mouse; details: 1 mU/g insulin, 20 min post treatment
Protocol: FIG. 4. Akt interacts with and phosphorylates Cavβ2. (A) Coimmunoprecipitation assay of Akt and Cavβ2. Ventricular homogenates from WT and HA-E40K-Akt transgenic mice (Tg Akt) immunoprecipitated with antibodies against HA and immunoblotted for Cavβ2 as well as HA as a control. (B) Examination of Cavβ2 phosphorylation by Akt. In vitro kinase assays were performed with immunoprecipitated Cavβ2 incubated with recombinant active Akt and ^32P labeled ATP (left) or immunoprecipitated Cavβ2 from WT and KO cardiac extracts from mice treated or not with insulin (1 mU/g) using PAS (Phospho-Akt Substrate) antibody (right). (C) Back-phosphorylation assay of Cavβ2 from WT and KO hearts. Immunoprecipitated Cavβ2 from solubilized membranes was in vitro back-phosphorylated using recombinant active Akt and [γ^32]ATP. Precipitate amounts were assayed for ^32PCavβ2 and total Cavβ2. Representative experiments are shown (n=4).
To determine whether Cavβ2 can be phosphorylated by Akt, Cavβ2-immunoprecipitates from cardiac homogenates were incubated with recombinant active Akt and [γ-^32]ATP. A band corresponding to phosphorylated Cavβ2 was detected only in the presence of the kinase (FIG. 4B, left panel). To determine whether the Cavβ2 subunit was phosphorylated by Akt in vivo, we treated overnight-starved mice with 1 mU/g insulin to induce activation of Akt (Bayascas et al., 2008). […]

| Substance | Cavα1 protein level under Akt inhibitor ([1]; 5 μM Akt inhibitor) | Cavα1 protein levels compared to cotransfection with Cavβ2-WT ([1]; 293T cells cotransfected with Cavα1) | ICa,L in serum-free medium compared to serum-containing medium [2] | Phosphorylation of Cavβ2 in heart [3] | Cavα1 expression on insulin treatment ([1]; Cavβ2-WT cotransfected cells) |
| --- | --- | --- | --- | --- | --- |
| Cavβ2-SE: mutant of Cavβ2 in which Serine 625 in the Akt consensus site was replaced by Glutamate to mimic phosphorylation | counteracted the downregulation of Cavα1 | increased | completely counteracted this reduction | – | – |
| insulin [reference compound] | – | – | – | insulin-stimulated phosphorylation of Cavβ2 in WT but not in KO hearts | increased |
